Laboratory results as given in patent US20040063780A1, “Pharmaceutical preparations for treatment of type II diabetes and methods for treatment of type II diabetes” (CHUGAI SEIYAKU KABUSHIKI KAISHA, priority 2002, published 2004).
Values joined by “and” are separate entries in the source; they are usually repeats but may differ in a detail not shown here. Equal entries are not always repeated.

What was measured:
db/db mice = assay: Oral glucose tolerance test in db/db mice (blood glucose and blood lactic acid levels); type: in vivo, mice (C57BLKS/J-m+/+Lepr<db>(db/db)); conditions: subcutaneous, 30 min before oral glucose 3 g/kg, AUC up to 2 hours
Description: In a glucose tolerance test with oral administration to db/db mice, approximately 50% suppression of blood glucose level in the db/db mice produces a level increase similar to that of healthy mice, and therefore a blood glucose reduction rate of at least 40%, and especially at least 50%, is preferred.
Measurement of blood glucose reduction rate in db/db mice by a glucose tolerance test with oral administration may be carried out by a publicly known method, but the following method is preferred. Specifically, 11- to 17-week-old female mice (C57BLKS/J-m+/+Lepr(db/db) ) are starved for 18-24 hours. A group of five or six mice is used for the test. Blood is sampled from the tail for measurement of the blood glucose levels before treatment as a control. After sampling, the biguanide derivative is dissolved in phosphate-buffered saline to a suitable concentration and subcutaneously administered at a dose of 5 ml/kg. As a control there are prepared mice administered only the solvent. Glucose is then administered orally at a dose of 3 g/6 ml/kg at 30 minutes after administration of the compound or solvent as an oral glucose tolerance test. Blood is sampled from the tail for measurement of the blood glucose levels 30 minutes, 1 hour and 2 hours after glucose administration. The blood glucose levels are measured using a New Blood Sugar Test (Roche Diagnostics) or a Glucose CII-Test Wako (Wako Pure Chemical Industries, Ltd.).
(§1) The blood glucose reduction rate is calculated according to the following formula.
Blood glucose reduction rate (%)=[(AUC for blood glucose increase level of solvent-administered group—AUC for blood glucose increase level of compound-administered group)/AUC for blood glucose increase level of solvent-administered group]×100
The AUC for blood glucose increase level represents the area of the increase portion in a graph of the blood glucose level changes after glucose administration plotted with respect to time, up to 2 hours after glucose administration, with the glucose level prior to glucose administration as the baseline. Specifically, the AUC for the blood glucose increase level may be calculated by the following formula, where A=blood glucose level before glucose administration, B=blood glucose level 30 minutes after glucose administration, C=blood glucose level 1 hour after glucose administration, D=blood glucose level 2 hours after glucose administration.
AUC for blood glucose increase level=0.5×((A+B)/2-A)+0.5×((B+C)/2-A)+1×((C+D)/2-A)
Measurement of blood glucose reduction rate and blood lactic acid levels by the aforementioned oral glucose tolerance test may be carried out by a publicly known method, and the measurement of the former may be carried out by the method described above, while the following method is preferred for measurement of the latter. Specifically, 11- to 17-week-old female mice (C57BLKS/J-m+/+Lepr(db/db)) are starved for 18-24 hours. A group of five or six mice is used for the test. Blood is sampled from the tail for measurement of the blood lactic acid levels before treatment as a control. After sampling, the biguanide derivative is dissolved in phosphate-buffered saline to a suitable concentration and subcutaneously administered at a dose of 5 ml/kg. As a control there are prepared mice administered only the solvent. Glucose is then administered orally at a dose of 3 g/6 ml/kg at 30 minutes after administration of the compound or solvent as an oral glucose tolerance test. Blood is sampled from the tail for measurement of the blood lactic acid levels 30 minutes, 1 hour and 2 hours after glucose administration. The blood lactic acid levels are measured using an “Asuka Sigma” (Sigma Diagnostics)
The blood lactic acid level increase rate is calculated according to the following formula. […]

KKAy mice = assay: Hypoglycemic test by oral administration using KKAy mice; type: in vivo, mice (KKAy/Ta); conditions: AUC for blood glucose up to 6 hours after administration
Description: The strength of the insulin sensitivity-enhancing effect may be evaluated based on the degree of blood glucose reduction rate with administration of the drug agent to KKAy mice. […] In hypoglycemic tests by oral administration using KKAy mice, approximately 45% suppression of blood glucose level in KKAy mice produces a level similar to healthy mice, and therefore a blood glucose reduction rate of 40-50% is preferred.
Measurement of blood glucose reduction rate in KKAy mice by a hypoglycemic test with oral administration may be carried out by a publicly known method, but the following method is preferred.
Specifically, a group of six 11-week-old male mice (KKAy/Ta) is used for the test. Blood is sampled from the tail for measurement of the blood glucose levels before treatment as a control. After sampling, the biguanide derivative is dissolved in a 0.5% CMC-Na (sodium carboxymethyl cellulose) solution to a suitable concentration and orally administered at a dose of 10 mL/kg. As a control there are prepared mice administered only the solvent. Blood is sampled from the tail to measure the blood glucose levels 1, 2, 4 and 6 hours after administration of the drug. The blood glucose levels are measured using a Glucose CII-Test Wako (Wako Pure Chemical Industries, Ltd.).
as §1
Blood glucose reduction rate (%)=[(AUC for blood glucose of control group—AUC for blood glucose of compound-administered group)/AUC for blood glucose of control group]×100
The AUC for blood glucose represents the area in a graph of the blood glucose level changes after administration of the drug plotted with respect to time, up to 6 hours after administration with a glucose level of 0 as the baseline. Specifically, the AUC for the blood glucose level may be calculated by the following formula, where A=blood glucose level before drug administration, B=blood glucose level 1 hour after drug administration, C=blood glucose level 2 hours after drug administration, D=blood glucose level 4 hours after drug administration, E=blood glucose level 6 hours after drug administration.
AUC for blood glucose level=1×((A+B)/2)+1×((B+C)/2)+2×((C+D)/2)+2×((D+E)/2)
A group of six 11-week-old male mice (KKAy/Ta) was used for the test. Blood was sampled from the tail for measurement of the blood glucose levels before treatment as a control. After sampling, furfuryl biguanide was dissolved in a 0.5% CMC-Na (sodium carboxymethyl cellulose) solution to a suitable concentration and orally administered at 10 mL/kg with the dosages shown in Table 1 (Examples 1-5). For comparison, metformin was also orally administered to mice in the doses shown in Table 1 (Comparative Examples 1-5). As a control there were prepared mice which had been orally administered the solvent alone. Blood was sampled from the tail to measure the blood glucose levels 1, 2, 4 and 6 hours after administration of the drug, and the blood glucose reduction rates were calculated by the formula given above. The blood glucose levels were measured using a Glucose CIT-Test Wako (Wako Pure Chemical Industries, Ltd.).

[1] = Mus musculus, sc, 2 h, 75 mg/kg, read-out: Blood glucose reduction rate (%)
[2] = Mus musculus, sc, 2 h, read-out: Blood glucose reduction rate (%)
[3] = Mus musculus, sc, 2 h, 200 mg/kg, read-out: Blood glucose reduction rate (%)

## Cc1ccc(CNC(=N)NC(=N)N)o1 [1-(5-methylfurfuryl) biguanide]
db/db mice; Mus musculus, sc, 2 h, 25 mg/kg, read-out: Blood glucose reduction rate (%)
  inhibition in vivo at 25 mg/kg: 24.7%
db/db mice; Mus musculus, sc, 2 h, 50 mg/kg, read-out: Blood glucose reduction rate (%)
  inhibition in vivo at 50 mg/kg: 46.1%
db/db mice; [1]
  inhibition in vivo at 75 mg/kg: 54.7%
db/db mice; [2]
  inhibition in vivo at 100 mg/kg: 86.6%
db/db mice; 25 mg/kg
  Blood lactic acid level increase rate (%): 3.9%
db/db mice; 50 mg/kg
  Blood lactic acid level increase rate (%): 1.3%
db/db mice; 75 mg/kg
  Blood lactic acid level increase rate (%): 14.7%

## CSCc1ccoc1CNC(=N)NC(=N)N [1-[(3-Methylthiomethylfuran-2-yl)methyl] Biguanide]
db/db mice; [2]
  inhibition in vivo at 150 mg/kg: 47.3%

## Cc1cc(CNC(=N)NC(=N)N)oc1C [1-[(4,5-Dimethylfuran-2-yl)methyl] Biguanide]
db/db mice; [1]
  inhibition in vivo at 75 mg/kg: 52%

## CSc1coc(CNC(=N)NC(=N)N)c1 [1-[(4-Methylthiofuran-2-yl)methyl] Biguanide]
db/db mice; [1]
  inhibition in vivo at 75 mg/kg: 44.1%
db/db mice; [2]
  inhibition in vivo at 100 mg/kg: 47.5%
  inhibition in vivo at 150 mg/kg: 58.1%
db/db mice; [3]
  inhibition in vivo at 200 mg/kg: 73.9%

## CSCc1ccc(CNC(=N)NC(=N)N)o1 [1-[(5-Methylthiomethylfuran-2-yl)methyll] Biguanide]
db/db mice; [1]
  inhibition in vivo at 75 mg/kg: 46%

## CCc1ccc(CNC(=N)NC(=N)N)o1 [1-[(5-ethylfuran-2-yl)methyl] biguanide, 1-[(5-Ethylfuran-2-yl)methyl] Biguanide]
db/db mice; [1]
  inhibition in vivo at 75 mg/kg: 71.3%

## CC(C)(C)c1ccc(CNC(=N)NC(=N)N)o1 [1-[(5-tert-butylfuran-2-yl)methyl] Biguanide]
db/db mice; [1]
  inhibition in vivo at 75 mg/kg: 62.1%

## N=C(N)NC(=N)NCc1ccco1 [Furfuryl biguanide, Furfuryl Biguanide]
KKAy mice; 25.0 mg/kg
  Blood glucose reduction rate (%): 8.7%
KKAy mice; 50.0 mg/kg
  Blood glucose reduction rate (%): 15.2%
KKAy mice; 100.0 mg/kg
  Blood glucose reduction rate (%): 29.4%
KKAy mice; 200.0 mg/kg
  Blood glucose reduction rate (%): 43.9%
KKAy mice; 300.0 mg/kg
  Blood glucose reduction rate (%): 48.0%
db/db mice; Mus musculus, sc, 2 h, 20.0 mg/kg, read-out: Blood glucose reduction rate (%)
  inhibition in vivo at 20 mg/kg: 46.9%
db/db mice; Mus musculus, sc, 2 h, 40.0 mg/kg, read-out: Blood glucose reduction rate (%)
  inhibition in vivo at 40 mg/kg: 52.3%
db/db mice; [1]
  inhibition in vivo at 75 mg/kg: 60.6%
db/db mice; Mus musculus, sc, 2 h, 80.0 mg/kg, read-out: Blood glucose reduction rate (%)
  inhibition in vivo at 80 mg/kg: 68.7%
db/db mice; 20.0 mg/kg
  Blood lactic acid level increase rate (%): 7.0%
db/db mice; 40.0 mg/kg
  Blood lactic acid level increase rate (%): 16.7%
db/db mice; 75 mg/kg
  Blood lactic acid level increase rate (%): 22.0%
db/db mice; 80.0 mg/kg
  Blood lactic acid level increase rate (%): 11.2%

## CN(C)C(=N)N=C(N)N [Metformin, reference compound]
KKAy mice; 150.0 mg/kg
  Blood glucose reduction rate (%): 11.6%
KKAy mice; 300.0 mg/kg
  Blood glucose reduction rate (%): 6.4%
KKAy mice; 600.0 mg/kg
  Blood glucose reduction rate (%): 21.8%
KKAy mice; 900.0 mg/kg
  Blood glucose reduction rate (%): 32.7%
KKAy mice; 1350.0 mg/kg
  Blood glucose reduction rate (%): 46.4%
db/db mice; [2]
  inhibition in vivo at 100 mg/kg: 19.4%
db/db mice; [3]
  inhibition in vivo at 200 mg/kg: 37.5%
db/db mice; 200 mg/kg, 200 mg/kg
  Blood lactic acid level increase rate (%): 36.8% and 42.7%
db/db mice; 300 mg/kg, 300 mg/kg
  Blood lactic acid level increase rate (%): 133.7% and 155.9% and 138.9% and 145.9%
